Measured values as given in patent US11261186B2, “Biaryl derivative as GPR120 agonist” (LG CHEM, LTD., priority 2014, dated 2022).

biological target: T1, hGPR120 (Homo sapiens, UniProt Q5NUL3); experiment: Measurement of Activity of GPR120 Agonist (Cell-Based Assay), Calcium 5 dye fluorescence; details: CHO-K1 cells expressing Ga16 and hGPR120
T1 construct: expressed in transfected cells; host or cells: CHO-K1
T1 sequence (Q5NUL3 1-361): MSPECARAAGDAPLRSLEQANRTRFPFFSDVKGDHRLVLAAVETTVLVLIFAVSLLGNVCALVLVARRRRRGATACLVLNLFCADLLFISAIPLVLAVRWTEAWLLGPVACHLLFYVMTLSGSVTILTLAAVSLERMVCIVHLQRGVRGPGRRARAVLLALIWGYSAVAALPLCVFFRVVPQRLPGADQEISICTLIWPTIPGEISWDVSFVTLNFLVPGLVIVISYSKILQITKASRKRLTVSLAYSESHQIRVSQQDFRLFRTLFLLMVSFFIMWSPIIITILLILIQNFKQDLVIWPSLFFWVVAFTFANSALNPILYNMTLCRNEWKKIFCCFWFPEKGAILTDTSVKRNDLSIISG
In short: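 CHO-K1 cells co-expressing Gα16 and hGPR120, plated 18 h, loaded 1 h at 37°C with Calcium 5 dye. Serially diluted agonists added at 0.5% DMSO final; fluorescence read at Ex 485/Em 525 nm and expressed as relative % of DMSO-only signal.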

EC50 [nM]	Compound
< 200	CCCSc1ncccc1-c1cc(F)c(N2CCC(CC(=O)O)CC2)c(F)c1 [Example 117, 2-[1-[2,6-difluoro-4-(2-propylsulfanyl-3-pyridyl)phenyl]-4-piperidyl]acetic acid]
200 to 2000	O=C(O)CC1CCN(c2c(F)cc(-c3cccnc3SC3CCC3)cc2F)CC1 [Example 118, 2-[1-[4-(2-cyclobutylsulfanyl-3-pyridyl)-2,6-difluoro-phenyl]-4-piperidyl]acetic acid]
200 to 2000	CC(C)Oc1ncccc1-c1cc(F)c(N2CCC(CC(=O)O)CC2)c(F)c1 [Example 119, 2-[1-[2,6-difluoro-4-(2-isopropoxy-3-pyridyl)phenyl]-4-piperidyl]acetic acid]
< 200	O=C(O)CC1CCN(c2c(F)cc(-c3cccnc3OCC3CC3)cc2F)CC1 [Example 121, 2-[1-[4-[2-(cyclopropylmethoxy)-3-pyridyl]-2,6-difluoro-phenyl]-4-piperidyl]acetic acid]
2000 to 20000	CC(C)Sc1ncccc1-c1cc(F)c(-n2cc(CC(=O)O)cn2)c(F)c1 [Example 122, 2-[1-[2,6-difluoro-4-(2-isopropylsulfanyl-3-pyridyl)phenyl]pyrazol-4-yl]acetic acid]
200 to 2000	CC(C)Sc1cccc(-c2cc(F)c(-n3cc(CC(=O)O)cn3)c(F)c2)n1 [Example 123, 2-[1-[2,6-difluoro-4-(6-isopropylsulfanyl-2-pyridyl)phenyl]pyrazol-4-yl]acetic acid]
< 200	CC(C)Sc1ncccc1-c1cc(F)c(N2CCC(CCC(=O)O)CC2)c(F)c1 [Example 126, 3-[1-[2,6-difluoro-4-(2-isopropylsulfanyl-3-pyridyl)phenyl]-4-piperidyl]propanoic acid]
< 200	CC(C)Sc1ncccc1-c1cc(F)c(N2CC[C@@H](CC(=O)O)C2)c(F)c1 [Example 136, 2-[(3S)-1-[2,6-difluoro-4-(2-isopropylsulfanyl-3-pyridyl)phenyl]pyrrolidin-3-yl]acetic acid]
200 to 2000	CC(C)Sc1ncccc1-c1ccc(N2CCC(CC(=O)O)CC2)c(F)c1 [Example 138, 2-[1-[2-fluoro-4-(2-isopropylsulfanyl-3-pyridyl)phenyl]-4-piperidyl]acetic acid]
200 to 2000	CC(C)Sc1cccc(-c2ccc3cc(CCC(=O)O)ccc3c2)n1 [Example 140, 3-[6-(6-isopropylsulfanyl-pyridin-2-yl)-naphthalen-2-yl]-propanoic acid]
< 200	O=C(O)CCc1ccc2cc(-c3cccc(Oc4ccccc4)n3)ccc2c1 [Example 141, 3-[6-(6-phenoxy-pyridin-2-yl)-naphthalen-2-yl]-propanoic acid]
< 200	O=C(O)CCc1ccc2cc(-c3cccnc3Oc3ccccc3)ccc2c1 [Example 144, 3-[6-(2-phenoxy-pyridin-3-yl)-naphthalen-2-yl]-propanoic acid]
< 200	CC(C)Oc1ncccc1-c1ccc2cc(CCC(=O)O)ccc2c1 [Example 149, 3-[6-(2-isopropoxy-pyridin-3-yl)-naphthalen-2-yl]-propanoic acid]
< 200	O=C(O)CCc1ccc2cc(-c3cccnc3OC3CCCC3)ccc2c1 [Example 150, 3-[6-(2-cyclopentyloxy-pyridin-3-yl)-naphthalen-2-yl]-propanoic acid]
< 200	O=C(O)CCCSc1c(F)cc(-c2cccc3c2OC(F)(F)O3)cc1F [Example 153, 4-[4-(2,2-difluoro-benzo[1,3]dioxol-4-yl)-2,6-difluoro-phenylsulfanyl]-butyric acid]
< 200	O=C(O)CCCSc1ccc(-c2cccc3c2OC(F)(F)O3)cc1F [Example 154, 4-[4-(2,2-difluoro-benzo[1,3]dioxol-4-yl)-2-fluoro-phenylsulfanyl]-butyric acid]
< 200	O=C(O)CCCSc1ccc(-c2cccc3c2OC(F)(F)O3)cc1 [Example 155, 4-[4-(2,2-difluoro-benzo[1,3]dioxol-4-yl)-phenylsulfanyl]-butyric acid]

Further lines, the compound ahead of its results:

Compound	EC50 [nM]
O=C(O)CC1CN(c2c(F)cc(-c3cccnc3SC3CCCC3)cc2F)C1 [Example 112, 2-[1-[4-(2-cyclopentylsulfanyl-3-pyridyl)-2,6-difluoro-phenyl]azetidin-3-yl]acetic acid]	< 200
O=C(O)CC1CN(c2c(F)cc(-c3cccnc3OC3CCCC3)cc2F)C1 [Example 113, 2-[1-[4-[2-(cyclopentoxy)-3-pyridyl]-2,6-difluoro-phenyl]azetidin-3-yl]acetic acid]	< 200
CC(C)Sc1cccc(-c2cc(F)c(N3CC(CC(=O)O)C3)c(F)c2)n1 [Example 114, 2-[1-[2,6-difluoro-4-(6-isopropylsulfanyl-2-pyridyl)phenyl]azetidin-3-yl]acetic acid]	< 200
CC(C)Oc1cccc(-c2cc(F)c(N3CC(CC(=O)O)C3)c(F)c2)n1 [Example 115, 2-[1-[2,6-difluoro-4-(6-isopropoxy-2-pyridyl)phenyl]azetidin-3-yl]acetic acid]	< 200
O=C(O)CC1CN(c2c(F)cc(-c3cccc(OC4CCCC4)n3)cc2F)C1 [Example 116, 2-[1-[4-[6-(cyclopentoxy)-2-pyridyl]-2,6-difluoro-phenyl]azetidin-3-yl]acetic acid]	< 200
CCCOc1ncccc1-c1cc(F)c(N2CCC(CC(=O)O)CC2)c(F)c1 [Example 120, 2-[1-[2,6-difluoro-4-(2-propoxy-3-pyridyl)phenyl]-4-piperidyl]acetic acid]	200 to 2000
CC(C)Sc1ncccc1-c1cc(F)c(N2CCC(CC(=O)O)C2)c(F)c1 (stereo not shown) [Example 124, 2-[1-[2,6-difluoro-4-(2-isopropylsulfanyl-3-pyridyl)phenyl]pyrrolidin-3-yl]acetic acid]	< 200
CC(C)Sc1cccc(-c2cc(F)c(N3CCC(CC(=O)O)C3)c(F)c2)n1 (stereo not shown) [Example 125, 2-[1-[2,6-difluoro-4-(6-isopropylsulfanyl-2-pyridyl)phenyl]pyrrolidin-3-yl]acetic acid]	< 200
O=C(O)C1CC1CCNc1c(F)cc(-c2cccnc2SC2CCCC2)cc1F (stereo not shown) [Example 128, 2-[2-[4-(2-cyclopentylsulfanyl-3-pyridyl)-2,6-difluoro-anilino]ethyl]cyclopropanecarboxylic acid]	< 200
CC(C)Sc1ncccc1-c1cc(F)c(-n2cc(CCC(=O)O)cn2)c(F)c1 [Example 131, 3-[1-[2,6-difluoro-4-(2-isopropylsulfanyl-3-pyridyl)phenyl]pyrazol-4-yl]propanoic acid]	2000 to 20000
O=C(O)CCCN1CCc2cc(-c3cccnc3SC3CCCC3)ccc21 [Example 132, 4-[5-(2-cyclopentylsulfanyl-3-pyridyl)indolin-1-yl]butanoic acid]	< 200
CC(C)Sc1ncccc1-c1cc(F)c(N2CC(CCC(=O)O)C2)c(F)c1 [Example 133, 3-[1-[2,6-difluoro-4-(2-isopropylsulfanyl-3-pyridyl)phenyl]azetidin-3-yl]propanoic acid]	200 to 2000
CC(C)Sc1ncccc1-c1cc(F)c(N2CC[C@H](CC(=O)O)C2)c(F)c1 [Example 134, 2-[(3R)-1-[2,6-difluoro-4-(2-isopropylsulfanyl-3-pyridyl)phenyl]pyrrolidin-3-yl]acetic acid]	< 200
O=C(O)C[C@H]1CCN(c2c(F)cc(-c3cccnc3OC3CCCC3)cc2F)C1 [Example 135, 2-[(3R)-1-[4-[2-(cyclopentoxy)-3-pyridyl]-2,6-difluoro-phenyl]pyrrolidin-3-yl]acetic acid]	< 200
O=C(O)C[C@@H]1CCN(c2c(F)cc(-c3cccnc3OC3CCCC3)cc2F)C1 [Example 137, 2-[(3S)-1-[4-[2-(cyclopentoxy)-3-pyridyl]-2,6-difluoro-phenyl]pyrrolidin-3-yl]acetic acid]	< 200
O=C(O)CC1CCN(c2ccc(-c3cccnc3OC3CCCC3)cc2F)CC1 [Example 139, 2-[1-[4-[2-(cyclopentoxy)-3-pyridyl]-2-fluoro-phenyl]-4-piperidyl]acetic acid]	200 to 2000
O=C(O)CCc1ccc2cc(-c3ccccc3Oc3ccccc3)ccc2c1 [Example 142, 3-[6-(2-phenoxy-phenyl)-naphthalen-2-yl]-propanoic acid]	200 to 2000
O=C(O)CCc1ccc2cc(-c3cccc(SC4CCCC4)n3)ccc2c1 [Example 143, 3-[6-(6-cyclopentylsulfanyl-pyridin-2-yl)-naphthalen-2-yl]-propanoic acid]	2000 to 20000
CC(C)Oc1cccc(-c2ccc3cc(CCC(=O)O)ccc3c2)c1 [Example 146, 3-[6-(3-isopropoxy-phenyl)-naphthalen-2-yl]-propanoic acid]	200 to 2000
O=C(O)CCc1ccc2cc(-c3cccc(OC4CCC4)c3)ccc2c1 [Example 147, 3-[6-(3-cyclobutoxy-phenyl)-naphthalen-2-yl]-propanoic acid]	< 200
O=C(O)CCc1ccc2cc(-c3cccc(OC4CCC4)n3)ccc2c1 [Example 148, 3-[6-(6-cyclobutoxy-pyridin-2-yl)-naphthalen-2-yl]-propanoic acid]	200 to 2000
O=C(O)CCc1ccc2cc(-c3ccccc3Oc3ccccc3F)ccc2c1 [Example 151, 3-{6-[2-(2-fluoro-phenoxy)-phenyl]-naphthalen-2-yl}-propanoic acid]	2000 to 20000
O=C(O)CCc1ccc2cc(-c3cccc(Oc4ccccc4F)n3)ccc2c1 [Example 152, 3-{6-[6-(2-fluoro-phenoxy)-pyridin-2-yl]-naphthalen-2-yl}-propanoic acid]	200 to 2000
